Reference: patent US9198894B2, “Uses of 15-benzylidene-14-deoxy-11,12-didehydroandrographolide derivatives in the preparation of antineoplastic drugs” (Zhengzhou University, priority 2010, dated 2015)
Where “and” joins values, the source holds several entries; their conditions need not be identical. Equal entries are not always repeated. Marks after values point to notes of the source that are not given here.

Columns and labels:
[1] = format: in vivo, mouse; details: C57BL/6 mice, before vs 24 d after administration, Cyc 30 mg/kg ig
Experimental: (§1) 4) Method: B16-F10 cells in logarithmic growth phase were trypsinized, then resuspended in RPMI1640 medium containing 10% fetal bovine serum and centrifuged at 1000 rpm for 5 min. The supernatant was removed and sterile PBS was added to prepare single-cell suspension (10^7/mL). The murine melanoma lung metastasis model was established in mice via caudal vein injection of B16-F10 cells (0.2 ml/mouse). Mice were randomly divided into 4 groups (n=5) according to body weight, and 24 h later they were administrated intragastrically (ig; 0.2 ml/10 g) once a day continuously for 24 d with vehicle (tumor control group), Cyc (30 mg/kg), compound 3 at 0.85 mmol/kg and 1.10 mmol/kg. Mice were weighed and blood was collected by removing the eyeball at 24 h after the last administration. Sacrificed the mice, removed the lung and counted the number of melanoma nodules in lungs of mice under an anatomical lens. Serum obtained after centrifugation at 3000 rpm for 20 min (3K30 refrigerated centrifuge, Sigma, USA) was conserved at −20° C. Levels of TNF-α and IL-1β in serum were measured by ELISA method, which were performed in accordance with the instructions of the kits.

S180 murine sarcoma = assay: Growth, invasion and metastasis of S180 sarcoma in tumor-bearing mice; format: in vivo, mouse
Experimental: 1) Animals: Be the same with that of EXAMPLE 4.
2) Cells: The S180 murine sarcoma cells were obtained from Henan Academy of Medical and Pharmaceutical Sciences (Zhengzhou, China).
4) Method: Mice were randomly divided into 10 groups (n=12). The S180 cells after in vivo passage for 7 d were diluted with physiological saline to adjust to a concentration of 1×10^7/mL. The inoculation of tumor cells was conducted in two batches, those of tumor control group I and groups treated with compounds 1 or 3 were in batch 1, those of tumor control group II, Cyc group and the compound 2 groups were in batch 2. The mice were injected with S180 cells (0.2 ml/mouse) into the armpit of right forelimb subcutaneously, and 24 h later each group of mice was administrated intragastrically (ig; 0.2 ml/10 g) once a day continuously for 9 d with vehicle (tumor control group), Cyc (standard control), or compounds at the tested doses. On day 10, kill the mice, observe and record the degree of invasion and metastasis of tumor tissues, then the tumor tissues were segregated and weighed. The inhibition ratio (IR) of tumor growth was calculated by the following formula: IR (%)=[(Wc−Wt)/Wc]×100%, where Wc is the average tumor weight of the control group, and Wt is that of the treatment group. Data were expressed as mean±SD and statistical analysis was performed by SPSS Statistics 17.0 using a one-way analysis of variance (ANOVA) followed by unpaired t-test. A value of P<0.05 was considered statistically significant.

[2] = test system: B16-F10 mouse melanoma cells; format: in vivo; details: B16-F10, C57BL/6 mice, 30.00 mg/kg ig 24 d
Experimental: 1) Animals: A total of 20 C57BL/6 male mice of clean grade [Number of Animal License: SCXK (Xiang) 2009-0004], weighing 18-22 g, were purchased from Hunan Slca Jingda Experimental Animal Center Company, Ltd., China.
2) Cells: B16-F10 mouse melanoma cells were purchased from Nanjing KeyGen Biotech. Co. Ltd., China.
as §1
Data were expressed as mean±SD and statistical analysis was performed by SPSS Statistics 17.0 using a one-way analysis of variance (ANOVA) followed by unpaired t-test. A value of P<0.05 was considered statistically significant. The inhibition ratio (IR %) of lung metastasis was calculated as follows: IR %=(Nc−Nt)/Nc×100%, where Nc is the average number of nodules in lung tissues of vehicle, and Nt is that of mice treated with drugs.

Murine hepatoma H22 = assay: Anti-tumor and anti-angiogenesis effects on H22 tumor-bearing mice; format: in vivo, mouse; details: H22 mice, 20.00 mg/kg ig once a day 7 d
From the text: 1) Animals: Kunming mice of clean grade, half male and half female, body weight 20±2 g, were purchased from the experimental animal center of Henan Province, China. Qualified Certificate number: SCXK (Yu) 2005-0001.
2) Cells: Murine hepatoma H22 cells were presently obtained from Henan Academy of Medical and Pharmaceutical Sciences (Zhengzhou, China).
Cyclophosphamide (Cyc) was produced by Tianjin Jingshi Pharmaceutical Co., Ltd., China (approval number of medicine: H12021006). Gelatin and carmine red were supplied by Sigma Chemical (St. Louis, Mo., U.S.A). All other chemicals and reagents were of the highest commercial grade available. All drugs were prepared with normal saline emulsified with Tween-80 (0.1% v/v) and dispersed in carboxymethylcellulose (0.5% v/v). 10% (W/V) carmine solution was prepared with salt solution containing 5% (W/V) gelatin which should be used immediately after preparation. The rest of medicines and reagents and the methods for preparation were the same with that of EXAMPLE 1.
4) Method: The H22 cells after in vivo passage for 7 d were diluted with physiological saline to adjust to a concentration of 1×10^7/mL, injected to the armpit of right forelimb of mice subcutaneously (0.2 ml/mouse), then mice were divided into 10 groups (n=12; 6 male and 6 female per group) randomly. 24 h later each group of mice was administrated intragastrically (ig; 0.2 ml/10 g) once a day continuously for 7 d with vehicle (tumor control group and control group), Cyc (standard control), or compounds at the tested doses. After the last drug administration and a following fasting of 8 h, each mouse was anesthetized with 1% pentobarbital in normal saline solution (80 mg/kg; ip). Mice of control group were injected with 5% gelatin in normal saline solution (40) via the tail vein (1 ml/mouse); whereas mice of other groups were injected replaced by 10% carmine red and 5% gelatin in normal saline solution (40). Mice were killed, then freezed in a refrigerator at −20 for 2 h to solidify. Tumors were segregated, weighed and homogenized with 3 M NaOH solution (10 ml/g tumor). The homogenate supernatant was prepared by being centrifuged for 20 min at 14000 rpm, and the absorbance at 490 nm was assayed using a PowerWaveX Microplate Scanning Spectrophotometer (Bio-tek Instruments, Inc). The carmine red content was calculated based on the standard curve. The vascular index (VI) expressed as milligram of carmine red per gram of tumor tissue. The inhibition ratio (IR) of tumor growth was calculated using the formula: IR (%)=[(Wc−Wt)/Wc]×100%, where Wc is the average tumor weight of the control group, and Wt is that of the drug treatment group. Data were expressed as mean±SD and statistical analysis was performed by SPSS Statistics 17.0 using a one-way analysis of variance (ANOVA) followed by unpaired t-test. A value of P<0.05 was considered statistically significant.

IL-1β = format: in vivo, mouse; details: mouse, in vivo, 30 mg/kg
TNF-α = format: in vivo, mouse; details: mouse, in vivo, 30 mg/kg
[3] = test system: Hela human cervical carcinoma; assay: Colony formation assay, Hela; format: cell-based; details: Hela; read-out: Inhibition against tumor cell colony formation IC50
Experimental: (§2) 1) Cell lines: Cell lines of SGC-7901 human gastric cancer, A549 human lung adenocarcinoma and Hela human cervical carcinoma were purchased from the Type Culture Collection of the Chinese Academy of Sciences, Shanghai, China.
(§3) 3) Method: Colony formation assay was used. The cells were trypsinized to generate a single-cell suspension and seeded in a 6-well plate at a density of 100 cells/well, then drug-containing medium was added to the well to make the final concentration of compound to 0, 1.25, 2.50, 5.00, 7.50, 10.00 μmol/L, respectively. The experiments were performed in duplicate, and the cells were cultured at 37 in a humidified atmosphere with 5% CO2. Terminate cell culture when the clones can be seen in the culture plate, then remove the culture medium, and wash twice with PBS, fix the cells with methanol (5 ml/well) for 15 min and stain the cells with hematoxylin-eosin stain. The number of clones which comprised more than 50 cells was counted under a TS100-F-PH microscope (Nikon Company, Japan). Calculate relative colony formation ratio (%) and the IC50 values. Relative colony formation ratio (%)=(colony number of drug-administration well/colony number of control well)×100%.

[4] = test system: 5637 human urinary bladder cancer cells; assay: Wound healing (two-dimensional migration) assay, 5637; format: cell-based; details: 5637, 10.00 μmol/l, 24 h (FIG. 1C)
Experimental: (§4) 1) Cell lines: Cell lines of 5637 human bladder carcinoma, Eca-109 human esophageal carcinoma, HT29 human colon cancer, SGC-7901 human gastric cancer, A549 human lung adenocarcinoma and PC-3 human prostate carcinoma were purchased from the Type Culture Collection of the Chinese Academy of Sciences, Shanghai, China.
(§5) 3) Methods: The cells were trypsinized to generate a single-cell suspension and seeded in 96-well plates (200 μl/well), and incubated with medium containing 10% fetal bovine serum at 37 in a humidified atmosphere with 5% CO2. Following a 24 h incubation, the cells were starved for an additional 12 h in low-serum media (1% FBS). The cultures of Eca-109, HT29, 5637, SGC-7901, A549 and PC-3 were then scratched away with a 200-μl plastic pipette tip and rinsed twice with PBS to remove wound-derived loose and dislodged cells. The cells were cultured in replaced medium without or with compounds at final concentrations of 0, 2.50, 5.00 and 10.00 μmol/L, respectively. At least seven randomly selected views along the scraped line in each well were photographed immediately and 24 h and 36 h after incubation using a digital camera at 50× magnification. The average scraped area in each well under each treatment condition was measured, and the percentage of inhibition against cell migration was calculated. % of inhibition=1−(A0−At)/(A′0−A′t)×100%, where, A0 and At are the areas of wound with compound treatment measured immediately and 24 or 36 h post-injury, respectively; A′0 and A′t are the areas of wound without compound treatment measured immediately and 24 or 36 h post-injury, respectively.

[5] = test system: PC-3 human prostate carcinoma cells; assay: Wound healing (two-dimensional migration) assay, PC-3; format: cell-based; details: PC-3, 10.00 μmol/l, 36 h (FIG. 1F)
Experimental: as §4
as §5, with “The cells were cultured in replaced medium without or with compounds at final concentrations of 0, 2.50, 5.00 and 10.00 μmol/L, respectively. At least seven randomly selected views along the scraped line in each well were photographed immediately and 24 h and 36 h after incubation using a digital camera at 50× magnification.” left out

[6] = test system: SGC-7901 human gastric cancer; assay: Colony formation assay, SGC-7901; format: cell-based
Experimental: as §2, §3

[7] = test system: A549 human lung adenocarcinoma; assay: Colony formation assay, A549; format: cell-based
Experimental: as §2, §3

[8] = read-out: Inhibition against tumor cell colony formation IC50

## O=P1(N(CCCl)CCCl)NCCCO1 (centres unmarked) [Cyc, Cyclophosphamide, reference compound]
[1]
  Average increase in body weight: 0.7 g
S180 murine sarcoma; 30.00 mg/kg ig once a day 9 d
  IR (%) of S180 sarcoma growth: 53.61% and 53.61 ± 12.43 %
S180 murine sarcoma; S180, grades 0-4, 30.00 mg/kg
  Average invasion and metastasis grade: 3.67
S180 murine sarcoma; S180 invasion, Grade 0: no invasion, 30.00 mg/kg
  Mouse Number Grade 0: 0
S180 murine sarcoma; S180 invasion, Grade 1: invasion to right forelimb, 30.00 mg/kg
  Mouse Number Grade 1: 0
S180 murine sarcoma; S180 invasion, Grade 2: right forelimb and the left side of body, 30.00 mg/kg
  Mouse Number Grade 2: 0
S180 murine sarcoma; S180 invasion, Grade 3: also the ribs and muscles in chest, 30.00 mg/kg
  Mouse Number Grade 3: 4
S180 murine sarcoma; S180 invasion, Grade 4: invasion into chest or abdominal cavity, 30.00 mg/kg
  Mouse Number Grade 4: 8
[2]; 30 mg/kg
  IR (%) of lung metastasis: 47.92%
[2]; mean ± s, n = 5
  Lung index: 6.66 ± 0.37 mg/g
  Nodule number (melanoma nodules in lungs): 43.76 ± 11.70
Murine hepatoma H22
  IR (%) of tumor growth: 29.34* %
Murine hepatoma H22; mean ± s
  Carmine contents: 4.24 ± 2.29
  VI (vascular index, mg carmine red per g tumor tissue): 4.87 ± 1.13 mg/g
IL-1β
  IL-1β in serum: 41.58 ± 4.39 pg/mL
TNF-α
  TNF-α in serum: 8.45 ± 9.54

## C=C1CCC2C(C)(CO)C(O)CCC2(C)C1C=CC1=CC(=Cc2ccccc2)OC1=O (centres unmarked) [Compound 4]
[3]
  IC50: 4.84 µM
[4]
  Inhibitory effect on two-dimensional migration: much stronger than that of other tumor cells
[5]
  Inhibitory effect on two-dimensional migration: much stronger than that of other tumor cells
[6]
  Inhibition of colony formation compared with andrographolide: remarkably stronger than that of andrographolide
[6]; [8]
  IC50: 5.07 µM
[7]
  Inhibition of colony formation compared with andrographolide: remarkably stronger than that of andrographolide
[7]; [8]
  IC50: 4.51 µM
